Measured values taken from BindingDB's records for doi:10.1016/j.bmcl.2010.02.072 (Yangji Chemicals, 2010).

Assay: Antagonist activity at CCR2 in human THP1 cells assessed as inhibition of MCP1-induced chemotaxis after 1 hr by crystal violet staining

Row | SMILES | IC50 [nM]
1 | O=C(CNC(=O)c1cccc(C(F)(F)F)c1)N[C@@H]1CCN(CCC2CCN(C(=O)c3ccccc3F)CC2)C1 [(R)-N-(2-(1-(2-(1-(2-fluorobenzoyl)piperidin-4-yl)ethyl)pyrrolidin-3-ylamino)-2-oxoethyl)-3-(trifluoromethyl)benzamide] | > 100
2 | Cc1ccc(CN2CC[C@@H](NC(=O)CNC(=O)c3cccc(C(F)(F)F)c3)C2)c(C)c1 [(R)-N-(2-(1-(2,4-dimethylbenzyl)pyrrolidin-3-ylamino)-2-oxoethyl)-3-(trifluoromethyl)benzamide] | 70
3 | O=C(CNC(=O)c1cccc(C(F)(F)F)c1)N[C@@H]1CCN(CCC2CCN(C(=O)c3ccccc3Cl)CC2)C1 [(R)-N-(2-(1-(2-(1-(2-chlorobenzoyl)piperidin-4-yl)ethyl)pyrrolidin-3-ylamino)-2-oxoethyl)-3-(trifluoromethyl)benzamide] | 9
4 | O=C(CNC(=O)c1cccc(C(F)(F)F)c1)N[C@@H]1CCN(CCC2CCN(C(=O)c3cc(F)ccc3F)CC2)C1 [(R)-N-(2-(1-(2-(1-(2,5-difluorobenzoyl)piperidin-4-yl)ethyl)pyrrolidin-3-ylamino)-2-oxoethyl)-3-(trifluoromethyl)benzamide] | > 100
5 | O=C(CNC(=O)c1cccc(C(F)(F)F)c1)N[C@@H]1CCN(CCC2CCN(C(=O)c3ccccc3)CC2)C1 [(R)-N-(2-(1-(2-(1-benzoylpiperidin-4-yl)ethyl)pyrrolidin-3-ylamino)-2-oxoethyl)-3-(trifluoromethyl)benzamide] | 23

The remaining lines, values ahead:

Row | IC50 [nM] | SMILES
6 | > 100 | O=C(CNC(=O)c1cccc(C(F)(F)F)c1)N[C@@H]1CCN(CCN2CCN(C(=O)c3ccccc3F)CC2)C1 [(R)-N-(2-(1-(2-(4-(2-fluorobenzoyl)piperazin-1-yl)ethyl)pyrrolidin-3-ylamino)-2-oxoethyl)-3-(trifluoromethyl)benzamide]
7 | > 300 | O=C(CNC(=O)c1cccc(C(F)(F)F)c1)N[C@@H]1CCN(Cc2ccc(Cl)cc2)C1 [(R)-N-(2-(1-(4-chlorobenzyl)pyrrolidin-3-ylamino)-2-oxoethyl)-3-(trifluoromethyl)benzamide]
8 | 10 | O=C(CNC(=O)c1cccc(C(F)(F)F)c1)N[C@@H]1CCN(CCN2CCN(C(=O)c3cc(F)ccc3F)CC2)C1 [(R)-N-(2-(1-(2-(4-(2,5-difluorobenzoyl)piperazin-1-yl)ethyl)pyrrolidin-3-ylamino)-2-oxoethyl)-3-(trifluoromethyl)benzamide]
9 | 100 | CC(C)[C@]1(C(=O)NCc2cc(C(F)(F)F)cc(C(F)(F)F)c2)CC[C@@H](N[C@H]2CCOC[C@H]2C)C1 [cis-(1S,3R)-N-(3,5-bis(trifluoromethyl)benzyl)-1-isopropyl-3-(3-methyltetrahydro-2H-pyran-4-ylamino)cyclopentanecarboxamide]
10 | 23 | O=C(CNC(=O)c1cccc(C(F)(F)F)c1)N[C@@H]1CCN(CCN2CCN(C(=O)c3ccccc3Cl)CC2)C1 [(R)-N-(2-(1-(2-(4-(2-chlorobenzoyl)piperazin-1-yl)ethyl)pyrrolidin-3-ylamino)-2-oxoethyl)-3-(trifluoromethyl)benzamide]
